Test results taken from paper PMC3428805 (Journal of Medicinal Chemistry, 2012).
Like-named read-outs stand apart in the source and are kept apart here.

How the values were obtained:
K562 cells = experiment: cells; type: cell-based; details: Homo sapiens, K562, 72 h
[1] = Human hepatocyte stability; details: cryopreserved hepatocytes, 3 µM
[2] = log P and pKa, potentiometric method
[3] = Human plasma protein binding, equilibrium dialysis; details: 50%
[4] = Human microsomal stability; details: human microsomes, 3 µM
[5] = Mouse microsomal stability; details: mouse microsomes, 3 µM
[6] = Evaluation of acid stability at pH = 1 by LC-HRMS; type: physicochemical; details: for hydrolysis / decomposition at pH 1.0: pH 1.0, in words
Eg5 = biological target: T1, Eg5 (Homo sapiens, UniProt P52732)
T1 sequence (P52732 1-368): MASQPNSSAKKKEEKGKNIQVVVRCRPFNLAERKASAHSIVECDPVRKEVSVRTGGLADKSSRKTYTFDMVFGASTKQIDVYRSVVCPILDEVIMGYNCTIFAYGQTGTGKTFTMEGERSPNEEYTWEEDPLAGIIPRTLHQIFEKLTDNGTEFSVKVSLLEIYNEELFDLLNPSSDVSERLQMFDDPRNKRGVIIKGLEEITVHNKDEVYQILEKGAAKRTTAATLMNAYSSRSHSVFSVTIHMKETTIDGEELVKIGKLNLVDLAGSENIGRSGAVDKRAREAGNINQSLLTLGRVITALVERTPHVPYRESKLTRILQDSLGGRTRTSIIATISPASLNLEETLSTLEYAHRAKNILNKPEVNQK

[7] = Parallel artificial membrane permeability assay; type: in vitro ADME; details: passive permeability
log D7.4 = details: n-octanol/buffer, pH 7.4
[8] = calculated from Ki^app of basal ATPase inhibition

Structure (SMILES): Cc1ccc(C(CCC(N)C(=O)O)(c2ccccc2)c2ccccc2)cc1 (racemic) [rac-32, 2-Amino-5,5-diphenyl-5-(4-methylphenyl)pentanoic acid]
- GI50 (K562 cells; read-out: K562 cells, GI50, 72 h, Alamar blue): 0.098 ± 0.005 µM

Structure (SMILES): Cc1cccc(C(CC[C@@H](N)C(=O)O)(c2ccccc2)c2ccccc2)c1 [(R)-29]
- human hepatocytes, intrinsic clearance [1]: stable
- pKa ([2]; pKa 1): 9.07
- pKa ([2]; pKa 2): 2.55
- recovery at 5 µM [3]: 50.1%
- microsomal stability, Clint, human [4]: stable
- microsomal stability, Clint, mice [5]: stable
- GI50 (K562 cells; read-out: K562 cells, GI50): 0.091 ± 0.009 µM

Structure (SMILES): Cc1cccc(C(CC[C@H](N)C(=O)O)(c2ccccc2)c2ccccc2)c1 [(S)-29]
- human hepatocytes, intrinsic clearance [1]: stable
- pKa ([2]; pKa 1): 9.07
- pKa ([2]; pKa 2): 2.55
- recovery at 5 µM [3]: 52.3%
- microsomal stability, Clint, human [4]: stable
- microsomal stability, Clint, mice [5]: stable
- GI50 (K562 cells; read-out: K562 cells, GI50): 0.128 ± 0.015 µM

Structure (SMILES): N[C@@H](CSC(c1ccccc1)(c1ccccc1)c1ccccc1)C(=O)O [compound 1, S-trityl-L-cysteine, reference compound]
- t1/2, acid stability ([6]; pH 1.0, 0-24 h, LC-HRMS): stable

Structure (SMILES): NCCSC(c1ccccc1)(c1ccccc1)c1ccccc1 [compound 2, 2-(Tritylsulfanyl)ethanamine]
- ligand efficiency (Eg5): 0.39

Structure (SMILES): NCCOC(c1ccccc1)(c1ccccc1)c1ccccc1 [compound 6, 2-(Trityloxy)ethanamine]
- hydrolysis / decomposition at pH 1.0 [6]: decomposed after 16 h

Structure (SMILES): N[C@@H](CNC(c1ccccc1)(c1ccccc1)c1ccccc1)C(=O)O [compound 7, (2 S)-2-Amino-3-(tritylamino)propanoic acid]
- hydrolysis / decomposition at pH 1.0 [6]: completely hydrolyzed

Structure (SMILES): NCCNC(c1ccccc1)(c1ccccc1)c1ccccc1 [compound 8, N-Tritylethane-1,2-diamine]
- hydrolysis / decomposition at pH 1.0 [6]: completely hydrolyzed
- ligand efficiency (Eg5): 0.33

Structure (SMILES): NCCCC(c1ccccc1)(c1ccccc1)c1ccccc1 [compound 10, 4,4,4-Triphenylbutan-1-amine]
- stability at pH 1.0 ([6]; 5 days at pH 1.0): stable

Structure (SMILES): NCCSC(c1ccccc1)(c1ccccc1)c1cccc(F)c1 [compound 12, 2-(((3-Fluorophenyl)(diphenyl)methyl)sulfanyl)ethanamine]
- ligand efficiency (Eg5; [8]): 0.36

Structure (SMILES): N[C@@H](CSC(c1ccccc1)(c1ccccc1)c1cccc(Cl)c1)C(=O)O [compound 13, (2 R)-2-Amino-3-(((3-chloroxyphenyl)(diphenyl)methyl)sulfanyl)propanoic acid]
- ligand efficiency (Eg5; [8]): 0.36

Structure (SMILES): NCCSC(c1ccccc1)(c1ccccc1)c1cccc(Cl)c1 [compound 14, 2-(((3-Chlorophenyl)(diphenyl)methyl)sulfanyl)ethanamine]
- ligand efficiency (Eg5; [8]): 0.37

Structure (SMILES): COc1cccc(C(SCCN)(c2ccccc2)c2ccccc2)c1 [compound 21, 2-(((3-Methoxyphenyl)(diphenyl)methyl)sulfanyl)ethanamine]
- ligand efficiency (Eg5; [8]): 0.37

Structure (SMILES): N[C@@H](CSC(c1ccccc1)(c1ccccc1)c1cccc(O)c1)C(=O)O [compound 35, (2 R)-2-Amino-3-(((3-hydroxyphenyl)(diphenyl)methyl)sulfanyl)propanoic acid]
- PAMPA Papp [7]: no permeability recorded

Structure (SMILES): NC(=O)c1cccc(C(SC[C@H](N)C(=O)O)(c2ccccc2)c2ccccc2)c1 [compound 41, (R)-2-amino-3-(((3-carbamoylphenyl)diphenylmethyl)sulfanyl)propanoic acid]
- logD (log D7.4): 1.13
- PAMPA Papp [7]: no membrane diffusion detected

Structure (SMILES): Cc1ccc(C(=O)N(CCCN)[C@@H](c2nc3cc(Cl)ccc3c(=O)n2Cc2ccccc2)C(C)C)cc1 [compound 54, ispinesib, reference compound]
- recovery at 5 µM [3]: 50.6%
- microsomal stability, Clint, human [4]: stable
- microsomal stability, Clint, mice [5]: stable
